Columns and labels:
5-HT1D = target: T1, 5-HT1D (Homo sapiens, UniProt P28221); experiment: 5-HT1D receptor binding; details: read-out: Serotonin Receptor Binding 5-HT1D (IC50)
T1 construct: host or cells: membrane preparations
Experimental: (§1) Dopamine and serotonin receptor binding assays were performed in a standard manner with the incubation of membrane preparations in an assay buffer in the presence of a known radioactively labeled specific ligand for the receptor subtypes. Nonspecific binding was determined by assessing binding in the presence of excess ligand. Specific binding was measured as the total labeled ligand bound after the nonspecific binding was subtracted. The effect of the tested agents was measured by determining the competition for the receptor binding across a concentration range. Subsequently, an IC50 was determined for the agents tested. More specific details are provided below for several of the assays performed.

5-HT7 = target: T2, 5-HT7 (Homo sapiens, UniProt P34969); experiment: 5-HT7 receptor binding; details: read-out: Serotonin Receptor Binding 5-HT7 (IC50)
T2 construct: host or cells: membrane preparations
Experimental: as §1

Human D4.4 receptor = target: T3, Human D4.4 receptor (Homo sapiens, UniProt P21917); experiment: Dopamine D4 receptor binding (head prints D); details: head prints only D
T3 construct: expressed in transfected cells; host or cells: CHO cells
T3 sequence (P21917 1-419): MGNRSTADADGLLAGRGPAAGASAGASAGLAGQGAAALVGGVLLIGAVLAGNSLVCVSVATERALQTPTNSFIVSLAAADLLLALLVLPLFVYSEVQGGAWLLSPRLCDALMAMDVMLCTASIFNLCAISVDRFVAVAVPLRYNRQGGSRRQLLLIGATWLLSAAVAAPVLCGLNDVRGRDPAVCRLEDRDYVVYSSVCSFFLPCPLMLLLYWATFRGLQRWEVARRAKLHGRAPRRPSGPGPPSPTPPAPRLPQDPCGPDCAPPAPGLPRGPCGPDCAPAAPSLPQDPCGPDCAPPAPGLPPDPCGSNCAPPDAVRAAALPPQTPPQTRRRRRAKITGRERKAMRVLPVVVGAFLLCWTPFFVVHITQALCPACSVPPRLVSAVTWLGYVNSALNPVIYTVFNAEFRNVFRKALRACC
Experimental: as §1
(§2) Aliquots of transfected CHO cell membrane preparations corresponding to 100 μg protein are incubated for 60 min at 22° C. in 250 μl of 50 mM Tris-HCl buffer (pH 7.4) containing 120 mM NaCl, 5 mM KCl, 5 mM MgCl2, 1 mM EDTA, 0.3 nM [^3H]spiperone and increasing concentrations of the competing drugs. Nonspecific binding is determined in the presence of 10 μM (+)butaclamol. After incubation, the samples are filtered rapidly under vacuum through glass fiber filters (GF/B, Packard) and rinsed several times with ice-cold 50 mM Tris-HCl using a cell harvester (Packard). Bound radioactivity is measured with a scintillation counter (Topcount, Packard) using a liquid scintillation cocktail (Microscint 0, Packard). The reference compound for this assay is clozapine.

5-HT2B = target: T4, 5-HT2B (Homo sapiens, UniProt P41595); experiment: 5-HT2B receptor binding; details: read-out: Serotonin Receptor Binding 5-HT2B (IC50)
T4 construct: host or cells: membrane preparations
Experimental: as §1

5-HT1B = target: T5, 5-HT1B (Homo sapiens, UniProt P28222); experiment: 5-HT1B receptor binding; details: read-out: Serotonin Receptor Binding 5-HT1B (IC50)
T5 construct: host or cells: membrane preparations
Experimental: as §1

5-HT5A = target: T6, 5-HT5A (Homo sapiens, UniProt P47898); experiment: 5-HT5A receptor binding; details: read-out: Serotonin Receptor Binding 5-HT5A (IC50)
T6 construct: host or cells: membrane preparations
Experimental: as §1

D1 = target: T7, D1 (Homo sapiens, UniProt P21728); experiment: Dopamine D1 receptor binding
T7 construct: host or cells: membrane preparations
Experimental: as §1

5-HT6 = target: T8, 5-HT6 (Homo sapiens, UniProt P50406); experiment: 5-HT6 receptor binding; details: read-out: Serotonin Receptor Binding 5-HT6 (IC50)
T8 construct: host or cells: membrane preparations
Experimental: as §1

[1] = target: T9, serotonin uptake by rat cortex synaptosomes (Rattus norvegicus, UniProt P31652); experiment: Serotonin uptake functional assay; assay type: biochemical; details: [3H]5-hydroxytryptamin, read-out: Monoamine Neuronal Transport 5-HT Uptake (IC50)
T9 construct: from tissue; host or cells: male Wistar rat cortex synaptosomes
Experimental: Serotonin uptake functional assay
Characterization of serotonin uptake is performed using synaptosomes isolated in a 0.32 M sucrose buffer from a male Wistar rat cortex. The uptake of radiolabelled serotonin by synaptosomes (100 μg of proteins/point) is allowed by incubating them for 15 minutes at 37° C. in presence of test compounds and [3H]5-hydroxytryptamin (0.1 μCi/point). The experiment is performed in a deep well.
Synaptosomes and [3H]5-hydroxytryptamin are prepared in a Krebs buffer pH 7.4 containing 25 mM NaHCO3, 11 mM glucose and 50 μM ascorbic acid. This incubation buffer is oxygenated during 5 minutes before incubation. Basal control is incubated for 15 minutes at 4° C. in order to avoid any uptake. Following this incubation the uptake is stopped by filtration through an “unifilter 96-wells GF”Packard plate washed with Krebs buffer containing 25 mM NaHCO3 in order to eliminate the free [3H]5-hydroxytryptamin. The radioactivity associated to the synaptosomes retained onto the unifilter corresponding to the uptake is then measured with a microplate scintillation counter Topcount, Packard using a scintillation liquid microscint 0, Packard.
[See Perovics and Müiller “Pharmacological profile of hypericum extract: effect on serotonin uptake by postsynaptic receptors”, Arzeim Forsch/Drug Res. 45 1145-1148 (1995).]

D3 = target: T10, D3 (Homo sapiens, UniProt P35462); experiment: Dopamine D3 receptor binding
T10 construct: host or cells: membrane preparations
Experimental: as §1

Human D2 receptor = target: T11, Human D2 receptor (Homo sapiens, UniProt P14416); experiment: Dopamine D2 receptor binding; details: [3H]spiperone, transfected A9L cell membranes
T11 construct: expressed in transfected cells; host or cells: A9L cells
Experimental: as §1
as §2, with “A9L” for “CHO”, “20-40” for “100”, “(+)butaclamol.” for “clozapine.”

T2 sequence (P34969 whole entry, species assumed): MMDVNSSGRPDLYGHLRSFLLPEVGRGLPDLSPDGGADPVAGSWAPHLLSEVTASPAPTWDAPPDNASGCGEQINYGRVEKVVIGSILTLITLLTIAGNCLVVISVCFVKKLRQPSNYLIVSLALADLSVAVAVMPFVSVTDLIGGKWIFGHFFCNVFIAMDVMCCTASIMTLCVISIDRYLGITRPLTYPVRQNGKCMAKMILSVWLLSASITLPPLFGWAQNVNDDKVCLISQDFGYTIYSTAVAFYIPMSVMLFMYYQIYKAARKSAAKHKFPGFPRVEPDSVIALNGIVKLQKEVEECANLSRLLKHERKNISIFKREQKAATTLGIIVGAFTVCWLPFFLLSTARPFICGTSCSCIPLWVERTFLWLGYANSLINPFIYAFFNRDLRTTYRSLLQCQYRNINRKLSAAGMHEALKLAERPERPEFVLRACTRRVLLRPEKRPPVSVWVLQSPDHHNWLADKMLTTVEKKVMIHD
T7 sequence (P21728 whole entry): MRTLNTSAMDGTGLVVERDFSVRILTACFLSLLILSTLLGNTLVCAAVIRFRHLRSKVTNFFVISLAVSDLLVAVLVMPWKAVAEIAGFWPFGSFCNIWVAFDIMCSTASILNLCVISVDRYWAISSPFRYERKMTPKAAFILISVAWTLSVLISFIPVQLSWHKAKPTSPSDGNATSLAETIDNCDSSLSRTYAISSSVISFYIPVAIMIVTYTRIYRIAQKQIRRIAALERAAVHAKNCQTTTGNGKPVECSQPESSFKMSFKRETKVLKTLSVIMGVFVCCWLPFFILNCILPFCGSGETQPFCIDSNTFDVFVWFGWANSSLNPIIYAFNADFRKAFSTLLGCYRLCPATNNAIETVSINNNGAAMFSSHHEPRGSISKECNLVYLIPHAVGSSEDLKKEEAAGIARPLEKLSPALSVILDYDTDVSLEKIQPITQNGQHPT
T5 sequence (P28222 whole entry, species assumed): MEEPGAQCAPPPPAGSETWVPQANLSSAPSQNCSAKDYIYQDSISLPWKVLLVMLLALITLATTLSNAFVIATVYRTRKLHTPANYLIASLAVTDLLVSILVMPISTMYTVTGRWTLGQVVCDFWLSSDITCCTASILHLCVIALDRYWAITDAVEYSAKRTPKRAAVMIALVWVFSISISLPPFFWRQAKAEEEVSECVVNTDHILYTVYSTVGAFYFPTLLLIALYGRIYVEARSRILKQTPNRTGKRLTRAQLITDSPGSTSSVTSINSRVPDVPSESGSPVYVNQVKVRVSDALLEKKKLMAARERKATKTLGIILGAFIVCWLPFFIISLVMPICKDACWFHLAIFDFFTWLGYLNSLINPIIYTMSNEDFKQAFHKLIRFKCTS
T9 sequence (P31652 whole entry): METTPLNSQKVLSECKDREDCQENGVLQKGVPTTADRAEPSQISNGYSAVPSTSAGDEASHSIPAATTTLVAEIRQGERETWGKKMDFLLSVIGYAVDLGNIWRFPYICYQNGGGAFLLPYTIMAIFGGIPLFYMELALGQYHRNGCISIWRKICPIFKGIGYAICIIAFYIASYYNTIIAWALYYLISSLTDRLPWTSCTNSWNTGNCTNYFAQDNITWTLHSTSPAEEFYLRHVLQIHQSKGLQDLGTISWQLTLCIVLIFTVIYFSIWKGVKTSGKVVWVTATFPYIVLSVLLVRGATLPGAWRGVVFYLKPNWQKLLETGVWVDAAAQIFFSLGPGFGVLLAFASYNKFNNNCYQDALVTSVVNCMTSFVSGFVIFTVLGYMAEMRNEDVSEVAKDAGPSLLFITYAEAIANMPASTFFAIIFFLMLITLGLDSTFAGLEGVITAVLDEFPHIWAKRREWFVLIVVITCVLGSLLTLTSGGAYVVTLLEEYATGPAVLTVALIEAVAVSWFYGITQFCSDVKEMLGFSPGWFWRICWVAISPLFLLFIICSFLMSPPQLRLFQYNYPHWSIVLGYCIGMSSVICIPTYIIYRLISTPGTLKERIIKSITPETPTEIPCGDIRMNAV
T10 sequence (P35462 whole entry): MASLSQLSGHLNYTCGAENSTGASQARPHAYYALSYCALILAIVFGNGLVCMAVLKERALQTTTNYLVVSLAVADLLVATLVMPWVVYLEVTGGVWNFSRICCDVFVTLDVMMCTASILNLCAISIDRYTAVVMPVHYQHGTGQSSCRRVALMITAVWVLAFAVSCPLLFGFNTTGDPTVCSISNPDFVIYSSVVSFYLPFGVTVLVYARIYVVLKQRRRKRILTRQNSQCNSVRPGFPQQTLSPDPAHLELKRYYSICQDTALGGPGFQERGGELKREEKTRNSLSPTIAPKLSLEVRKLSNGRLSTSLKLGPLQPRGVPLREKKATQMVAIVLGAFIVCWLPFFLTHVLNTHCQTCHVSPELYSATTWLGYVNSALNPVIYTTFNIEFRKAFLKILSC
T11 sequence (P14416 whole entry): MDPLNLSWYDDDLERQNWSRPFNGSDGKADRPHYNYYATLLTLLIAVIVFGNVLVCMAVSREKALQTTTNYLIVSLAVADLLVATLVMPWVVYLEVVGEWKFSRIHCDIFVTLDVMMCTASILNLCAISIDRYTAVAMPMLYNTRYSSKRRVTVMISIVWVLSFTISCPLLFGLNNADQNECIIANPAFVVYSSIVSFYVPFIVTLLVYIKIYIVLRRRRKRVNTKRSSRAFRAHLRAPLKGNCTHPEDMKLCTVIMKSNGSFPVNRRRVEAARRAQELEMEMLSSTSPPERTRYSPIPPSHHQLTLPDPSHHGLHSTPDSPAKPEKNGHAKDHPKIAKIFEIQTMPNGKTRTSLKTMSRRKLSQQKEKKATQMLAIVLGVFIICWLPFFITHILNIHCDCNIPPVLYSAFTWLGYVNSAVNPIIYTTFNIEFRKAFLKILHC
T8 sequence (P50406 whole entry, species assumed): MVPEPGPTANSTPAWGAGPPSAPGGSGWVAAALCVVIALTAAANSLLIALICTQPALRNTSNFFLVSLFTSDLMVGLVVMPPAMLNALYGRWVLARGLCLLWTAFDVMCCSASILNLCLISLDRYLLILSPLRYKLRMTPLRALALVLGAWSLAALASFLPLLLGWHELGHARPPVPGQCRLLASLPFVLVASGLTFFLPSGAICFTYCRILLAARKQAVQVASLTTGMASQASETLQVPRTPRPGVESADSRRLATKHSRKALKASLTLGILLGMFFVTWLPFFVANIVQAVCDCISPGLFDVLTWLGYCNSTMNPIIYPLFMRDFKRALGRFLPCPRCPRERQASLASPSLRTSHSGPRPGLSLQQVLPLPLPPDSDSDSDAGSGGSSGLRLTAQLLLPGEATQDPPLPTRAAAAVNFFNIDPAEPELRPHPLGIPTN
T1 sequence (P28221 whole entry, species assumed): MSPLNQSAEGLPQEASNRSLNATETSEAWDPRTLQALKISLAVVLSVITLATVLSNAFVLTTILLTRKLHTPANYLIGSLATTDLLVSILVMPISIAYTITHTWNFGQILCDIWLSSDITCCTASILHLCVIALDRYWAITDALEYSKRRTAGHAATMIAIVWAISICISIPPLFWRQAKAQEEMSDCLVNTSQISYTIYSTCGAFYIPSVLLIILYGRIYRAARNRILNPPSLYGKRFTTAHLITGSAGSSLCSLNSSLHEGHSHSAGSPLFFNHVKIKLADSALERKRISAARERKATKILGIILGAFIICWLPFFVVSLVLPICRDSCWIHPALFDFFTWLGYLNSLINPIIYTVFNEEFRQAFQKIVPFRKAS
T4 sequence (P41595 whole entry, species assumed): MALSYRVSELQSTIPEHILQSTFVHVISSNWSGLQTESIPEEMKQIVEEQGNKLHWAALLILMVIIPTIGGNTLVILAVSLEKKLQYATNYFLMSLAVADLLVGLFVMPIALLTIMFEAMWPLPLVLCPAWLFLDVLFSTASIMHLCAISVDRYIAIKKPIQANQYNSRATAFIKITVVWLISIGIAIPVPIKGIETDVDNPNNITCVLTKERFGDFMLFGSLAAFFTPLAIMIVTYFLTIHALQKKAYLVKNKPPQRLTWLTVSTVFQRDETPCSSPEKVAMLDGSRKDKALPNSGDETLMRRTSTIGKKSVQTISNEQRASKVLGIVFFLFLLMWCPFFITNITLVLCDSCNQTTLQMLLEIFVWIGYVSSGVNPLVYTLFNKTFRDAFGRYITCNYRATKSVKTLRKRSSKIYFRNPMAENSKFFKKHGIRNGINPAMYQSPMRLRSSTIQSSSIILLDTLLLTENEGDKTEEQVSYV
T6 sequence (P47898 whole entry, species assumed): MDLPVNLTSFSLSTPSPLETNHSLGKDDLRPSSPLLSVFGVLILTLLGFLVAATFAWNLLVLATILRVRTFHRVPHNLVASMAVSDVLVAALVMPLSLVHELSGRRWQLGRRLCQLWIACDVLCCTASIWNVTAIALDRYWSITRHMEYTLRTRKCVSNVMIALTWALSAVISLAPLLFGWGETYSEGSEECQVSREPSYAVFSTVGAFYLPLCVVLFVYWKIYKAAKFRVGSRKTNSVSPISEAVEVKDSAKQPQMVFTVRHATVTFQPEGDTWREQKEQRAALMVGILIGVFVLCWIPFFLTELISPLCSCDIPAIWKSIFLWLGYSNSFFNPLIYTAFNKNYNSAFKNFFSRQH

SMILES	IC50 (5-HT1D) [µM]	IC50 (5-HT7) [µM]	IC50 (Human D4.4 receptor) [µM]	IC50 (5-HT2B) [µM]	IC50 (5-HT1B) [µM]	IC50 (5-HT5A) [µM]	IC50 (D1) [µM]	IC50 (5-HT6) [µM]	IC50 [1] [µM]	IC50 (D3) [µM]	IC50 (Human D2 receptor) [µM]
C[C@H](O)c1nn(CCCN2CCN(c3cccc(Cl)c3)CC2)c(=O)n1CCOc1ccccc1 [(S)-OH, (S)-2-{3-[4-(3-Chlorophenyl)-1-piperazinyl]propyl}-4-(2-phenoxyethyl)-5-[1-(hydroxy)-ethyl]-2,4-dihydro-[1,2,4]triazol-3-one]	0.234	0.06	0.994	0.041	2.84	1.97	2.31	0.489	0.79	1.91	0.788
CC(O)c1nn(CCCN2CCN(c3cccc(Cl)c3)CC2)c(=O)n1CCOc1ccccc1 (racemic) [(RS)-OH, 2-[3-[4-(3-chlorophenyl)1-piperazinyl]propyl]-5-(1-hydroxyethyl)-2,4-dihydro-4-(phenoxyethyl)-3H-1,2,4-triazol-3-one, reference compound]	1.15	0.061	1.31	0.034	4.55	2.23	2.27	0.856	0.5	2.56	1.42
C[C@@H](O)c1nn(CCCN2CCN(c3cccc(Cl)c3)CC2)c(=O)n1CCOc1ccccc1 [(R)-OH, (R)-hydroxynefazodone]	1.99	0.071	1.91	0.028	3.61	2.04	1.69	1.02	0.64	3.49	1.69

Source: US6469008B2, “(R)-hydroxynefazodone antipsychotic therapy” (Sepracor Inc., priority 1999, dated 2002)
